Legend:
[1] = biological target: T1, mouse MTHFR (Mus musculus, UniProt Q9WU20); assay: analytical size exclusion chromatography / DSF; type: binding
T1 sequence (Q9WU20 357-654): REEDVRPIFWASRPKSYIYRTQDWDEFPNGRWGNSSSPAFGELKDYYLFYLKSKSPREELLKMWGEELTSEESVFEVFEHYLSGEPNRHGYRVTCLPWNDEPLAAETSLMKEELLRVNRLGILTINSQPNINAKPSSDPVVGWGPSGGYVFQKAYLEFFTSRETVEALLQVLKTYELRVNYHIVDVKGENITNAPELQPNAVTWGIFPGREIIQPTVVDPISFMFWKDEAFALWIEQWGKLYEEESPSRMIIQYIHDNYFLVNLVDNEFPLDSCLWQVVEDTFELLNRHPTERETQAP

[2] = biological target: T2, 5,10-methylenetetrahydrofolate reductase (MTHFR) (Homo sapiens, UniProt P42898); assay: HPLC-based enzyme activity assay; also native MS, DSF and aSEC; type: biochemical; conditions: read-out: Inhibition (μM) / SAM Ki (95% CI)
T2 construct: HsMTHFR1–656 (phosphorylated, as purified)

[3] = biological target: T3, 5,10-methylenetetrahydrofolate reductase (MTHFR) (Homo sapiens, UniProt P42898, A368L); assay: differential scanning fluorimetry; aSEC; type: binding
T3 construct: HsMTHFR348–656
T3 sequence (P42898 348-656 A368L): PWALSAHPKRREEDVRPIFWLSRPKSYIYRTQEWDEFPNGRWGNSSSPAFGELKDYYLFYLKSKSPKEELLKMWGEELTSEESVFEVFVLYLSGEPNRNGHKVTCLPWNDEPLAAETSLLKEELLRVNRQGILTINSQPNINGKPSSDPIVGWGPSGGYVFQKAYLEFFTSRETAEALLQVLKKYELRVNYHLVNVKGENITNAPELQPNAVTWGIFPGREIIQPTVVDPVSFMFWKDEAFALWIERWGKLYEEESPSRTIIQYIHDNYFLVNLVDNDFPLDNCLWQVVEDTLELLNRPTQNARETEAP

SMILES | analytical size exclusion chromatography / DSF [1] | Ki [2] | differential scanning fluorimetry; aSEC [3]
Nc1ncnc2c1ncn2[C@@H]1O[C@H](CSCC[C@H](N)C(=O)O)[C@@H](O)[C@H]1O [SAH, S-adenosylhomocysteine] | A similar pattern of results were observed when using purified recombinant mouse MTHFR of the same protein boundaries |  | 
C[S+](CC[C@H](N)C(=O)[O-])C[C@H]1O[C@@H](n2cnc3c(N)ncnc32)[C@H](O)[C@@H]1O (stereo partly shown) [SAM, S-adenosylmethionine] | A similar pattern of results were observed when using purified recombinant mouse MTHFR of the same protein boundaries | 2.7 µM | p.A368L resulted in protein which retained the ability to bind SAM, but was less sensitive to change
